Results as given in patent US9381245B2, “Methods for inhibiting osteolysis” (New York University, priority 2012, dated 2016).
Entries after “also recorded” stand apart in the source; their conditions may differ.

What was measured:
NFκB p50/p105 = NFκB p50/p105 nuclear translocation in RAW264.7 cells with RANKL (Western blot); type: cell-based, murine; details: CGS21680 1 μM; 30 min with RANKL; PKA-ERK1/2 mechanism
Experimental: RAW264.7 cells were infected with lentiviral constructs expressing shRNA for the catalytic subunit of PKA or a scrambled control. Cells were incubated for 30 min in the presence of RANKL alone, plus CGS21680 (1 μM, CGS) or plus CGS and ZM241385 (1 μM, C+Z) before lysis, separation of nuclear and cytosolic fractions and analysis by Western Blot. Shown are representative Western Blots. Results in the bar graphs are expressed as the means of four independent experiments analyzed densitometrically and normalized to actin. Results were analyzed by two way ANOVA and Bonferroni post-hoc testing.

RANKL [1] = assay: RANKL real time RT-PCR in normal human osteoblasts differentiated from marrow cells; type: cell-based; details: CGS21680 1 μM; normalized to GAPDH
Experimental: (§1) A. Shown are representative sections (from 10 different mice) of mouse calvarium after formation of an air pouch alone (sham) or after formation of an air pouch and exposure to wear particles for 4 weeks in the presence of saline or saline containing CGS21680 (1 μM), as we have previously described (Mediero, et al., Sci Transl Med, 2012. 4(135): 135-65). Dark brown staining is positive. B. RNA was isolated from normal human osteoblasts (Alizarin Red+/Alkaline Phosphatase+ cells) after differentiation from normal marrow cells in the presence or absence of CGS21680 (1 μM). Real time RT-PCR was carried out for RANKL and normalized to GAPDH. Shown are mean (+/−SD) results of two different samples carried out in duplicate.

RANKL [2] = assay: RANKL staining of calvarium in murine model of wear particle-induced osteolysis; type: in vivo, mice; details: wear particles 4 weeks; saline containing CGS21680 1 μM
Experimental: as §1

RANK = RANK staining of calvarium in murine model of wear particle-induced osteolysis; type: in vivo, mice; details: wear particles 4 weeks; saline containing CGS21680 1 μM
Experimental: as §1

netrin-1 [3] = assay: Western blot of netrin-1 in supernate of RAW264.7 cells differentiating to osteoclasts; type: cell-based, murine; details: CGS21680 1 μM, RANKL and M-CSF
Experimental: (§2) A.) Bone marrow cells from WT and radiation chimeric netrin^−/− bone marrow mice were isolated and induced to differentiate into osteoclasts by incubation with RANKL and M-CSF. […] Cells from 5 different mice repeated in duplicate. […] A2A receptor stimulation reduces Unc5b, but not DCC, expression. Representative of 2 experiments. C. Bone mineral density (BMD) determined by Pixamouse small animal Dexa scanner. WT mice and Netrin1 KO mice are chimeras generated by infusion of either normal or netrin-1 deficient fetal liver into lethally irradiated congenic C57Black/6 mice. BMD was measured 18 weeks after transplant. Shown are the results of determinations on 5 mice in each group. […] Representative of 5 different mice with each treatment. E. Soft tissue from patients stained for semaphorin 4D (original magnification 800×). On the left is soft tissue obtained at the time of hip replacement (Representative of 14). […] On the right is tissue obtained at time of prosthesis revision (representative of 12).

netrin-1 [4] = assay: Netrin-1 expression in inflammatory infiltrate in wear particle-induced osteolysis; type: in vivo; details: wear particle-induced osteolysis in mice
Experimental: as §2
Staining for netrin-1 was carried out in collaboration with Dr. Kathryn Moore's laboratory, an internationally known expert on the role of this protein in macrophage function in atherosclerosis (van Gils, et al., Nat Immunol, 2012, 13(2): 136-43). […]

[5] = system: wear particle-induced osteolysis; assay: New bone formation at sites of wear particle-induced osteolysis (Xenolight Rediject Bone Probe 680, IVIS); type: in vivo, mice; details: daily injections of CGS21680 into air pouch over calvarium
Experimental: Mice (C57B1/6) underwent formation of an air pouch over the calvarium and then exposed to saline (sham) or wear particles […] followed by daily injections of 200 μl of saline or CGS21680, as previously described. Animals were injected with Xenolight Rediject Bone Probe 680 (2 nmoles in 150 ul) followed by scanning in the IVIS apparatus. The intensity of staining is indicated by increasing yellow coloration. The fluorescence is detectable without change for 3-4 days and persists for as long as 2 weeks although all of these scans were taken on the day of injection. Shown are representative scans of ⅕ animals per group. The intensity of fluorescence was quantitated in a specific area of interest using software provided with the apparatus and the mean (±SEM) was calculated for 5 animals in each. In these experiments osteolysis will be monitored as porosity of the calvaria, measured by microCT, as has been previously described (Mediero, et al., Sci Transl Med, 2012. 4(135): 135-65). […] In addition, sema4D, netrin-1, GM-CSF, M-CSF, IP-10, MCP-1, IL-1, TNF, IL-6, IL-10, osteoprotegerin, osteocalcin and RANKL in supernates of cultured calvaria will be quantified by luminex assay, as has been previously described (Mediero, et al., Sci Transl Med, 2012. 4(135): 135-65). […]

[6] = system: bone marrow cells induced to differentiate into osteoclasts; assay: Osteoclast differentiation of bone marrow cells with RANKL and M-CSF (TRAP+ osteoclasts); type: cell-based, mice
Experimental: as §2
Consistent with this observation it was shown that radiation chimeras with netrin-1^−/− replacement bone marrow have increased bone mineral density, as measured by Dexa scan (FIG. 4). […]

osteoprotegerin = assay: Osteoprotegerin staining of calvarium in murine model of wear particle-induced osteolysis; type: in vivo, mice; details: wear particles 4 weeks; saline containing CGS21680 1 μM
Experimental: as §1

sema4D-expressing cells = assay: Sema4D staining of calvarium in murine model of wear particle-induced osteolysis; type: in vivo; details: wear particle-treated mice; immunostaining
Experimental: A.) Total cell lysates from primary murine bone marrow cells alone (basal) or after osteoclast differentiation in the presence of saline, CGS21680 (1 μM) with/without ZM241385 (1 μM) were subject to Western Blot detection of sema4D. Shown is a representative experiment of 3. B.) RAW264.7 osteoclasts, infected with a lentiviral vector expressing either shRNA for the catalytic subunit of PKA, scrambled shRNA, or primary murine bone marrow cells were cultured in the presence of saline (Black line) or CGS21680 (1 μM, Red Line) with/without ZM241385 (1 μM, Blue Line) for the time periods indicated before harvest of the cells, collection of RNA and real time RTPCR. Results represent the means (±SEM) of 5 separate determinations. C. Calvarium from sham or wear particle-treated wild type (C57B1/6) mice or adenosine A2A receptor knockout mice (C57B1/6 background) were stained for sema4D. D. Soft tissue from patients stained for semaphorin 4D (original magnification 800×). On the left is soft tissue obtained at the time of joint replacement (Representative of 14). On the right is tissue obtained at time of prosthesis revision (representative of 12). […] In this model ultra high molecular weight polyethylene particles (UHMWPE) are injected into an air pouch overlying the calvaria and the area of bone resorption is measured. […]

Unc5b = assay: Western blot of Unc5b in RAW264.7 cells differentiating to osteoclasts; type: cell-based, murine; details: CGS21680 1 μM
Experimental: as §2

semaphorin 4D = assay: Sema4D expression (Western blot, real time RT-PCR) in osteoclasts from primary murine bone marrow cells and RAW264.7 cells; type: cell-based; details: CGS21680 1 μM; protein kinase A-dependent
Experimental: A.) Total cell lysates from primary murine bone marrow cells alone (basal) or after osteoclast differentiation in the presence of saline, CGS21680 (1 μM) with/without ZM241385 (1 μM) were subject to Western Blot detection of sema4D. Shown is a representative experiment of 3. B.) RAW264.7 osteoclasts, infected with a lentiviral vector expressing either shRNA for the catalytic subunit of PKA, scrambled shRNA, or primary murine bone marrow cells were cultured in the presence of saline (Black line) or CGS21680 (1 μM, Red Line) with/without ZM241385 (1 μM, Blue Line) for the time periods indicated before harvest of the cells, collection of RNA and real time RTPCR. Results represent the means (±SEM) of 5 separate determinations. C. Calvarium from sham or wear particle-treated wild type (C57B1/6) mice or adenosine A2A receptor knockout mice (C57B1/6 background) were stained for sema4D. D. Soft tissue from patients stained for semaphorin 4D (original magnification 800×). On the left is soft tissue obtained at the time of joint replacement (Representative of 14). On the right is tissue obtained at time of prosthesis revision (representative of 12).

| SMILES | NFκB p50/p105 nuclear translocation (NFκB p50/p105) | RANKL mRNA in differentiating osteoblasts (RANKL [1]) | RANKL expression in calvarium (RANKL [2]) | RANK expression in calvarium (RANK) | netrin-1 in the supernate of RAW264.7 cells (netrin-1 [3]) | netrin-1 expression in the inflammatory infiltrate (netrin-1 [4]) | new bone formation at sites of wear particle-induced osteolysis [5] | osteoclast differentiation in WT cells ([6]; CGS21680 1 μM, RANKL and M-CSF, WT bone marrow cells) | osteoprotegerin expression in calvarium (osteoprotegerin) | number of sema4D-expressing cells in the calvaria (sema4D-expressing cells) | Unc5b expression (Unc5b) | semaphorin 4D expression by osteoclasts (semaphorin 4D) | reversal of the A2A receptor agonist (CGS21680) reduction of osteoclast differentiation ([6]; WT cells with CGS21680 1 μM, netrin-1 250 ng/ml) |
| --- | --- | --- | --- | --- | --- | --- | --- | --- | --- | --- | --- | --- | --- |
| CCNC(=O)[C@H]1O[C@@H](n2cnc3c(N)nc(NCCc4ccc(CCC(=O)O)cc4)nc32)[C@H](O)[C@@H]1O [CGS21680] | inhibits | diminishes RANKL mRNA | diminishes RANK, RANKL | diminishes RANK | reduces netrin-1 | inhibits its expression | restored | reduces osteoclast differentiation | increases osteoprotegerin expression | dramatically decreased; also recorded: diminishes recruitment of semaphorin 4D positive cells | reduces Unc5b | inhibits | – |
| Nc1nc(NCCc2ccc(O)cc2)nc2nc(-c3ccco3)nn12 [ZM241385] | – | – | – | – | – | – | – | – | – | – | – | – | reversed |
